# Experimental data: patent US20180291335A1, “MODIFIED POLYNUCLEOTIDES FOR ALTERING CELL PHENOTYPE” (ModernaTX, Inc., priority 2012, published 2018)
# How the values were obtained:
# [1] = tested on: human embryonic kidney 293 (HEK293) cells; assay: Cytotoxicity of NTPs, CYTO TOX-GLO assay; assay type: cell-based
# Protocol: The cytotoxicity of natural and modified nucleoside triphosphates (NTPs) alone or in combination with other bases, was analyzed in human embryonic kidney 293 (HEK293) cells in the absence of transfection reagent. […] 10 ul of the NTPs outlined in Table 12 were combined with 10 ul of lipid dilution and incubated for 30 minutes to form a complex before 80 ul of the HEK293 cell suspension was added to the NTP complex.
# Natural and modified NTPs were transfected at a concentration of 2.1 nM, 21 nM, 210 nM, 2.1 um, 21 uM, 210 um or 2.1 mM. NTPs in combination were transfected at a total concentration of NTPs of 8.4 nM, 84 nM, 840 nM, 8.4 uM, 84 uM, 840 uM and 8.4 mM. […] The cytotoxicity of the NTPs and the modified G-CSF mRNA was assayed at 4, 24, 48 and 72 hours post addition to the HEK293 cells using a CYTO TOX-GLO™ assay from Promega (Madison, Wis.) following the manufacturer protocol except pippeting was used for lysing the cells instead of shaking the plates.
# [2] = tested on: peripheral blood mononuclear cells (PBMC); assay: In vitro screening in PBMC: G-CSF protein expression by ELISA; assay type: cell-based, human
# Source text: (§1) The supernatant was harvested and stored frozen until analyzed by ELISA to determine the G-CSF protein expression, and the induction of the cytokines interferon-alpha (IFN-α) and tumor necrosis factor alpha (TNF-α).
# interferon-alpha (IFN-α) = assay: In vitro screening in PBMC: interferon-alpha induction by ELISA; assay type: cell-based, human
# Source text: as §1
# [3] = tested on: tumor necrosis factor alpha (TNF-α); assay: In vitro screening in PBMC: tumor necrosis factor alpha induction by ELISA; assay type: cell-based, human
# Source text: as §1
# [4] = PBMC Donor 1, 500 ng G-CSF mRNA
# [5] = PBMC Donor 2, 500 ng G-CSF mRNA
# [6] = PBMC Donor 3, 500 ng G-CSF mRNA
molecule,measurement,setting,value
Cn1cc([C@@H]2O[C@H](CO)[C@@H](O)[C@H]2O)c(=O)[nH]c1=O [N1-methyl pseudouridine],percent of viable cells,"[1]; human, 4 h, 2.1 nM",91.89%
same,percent of viable cells,"[1]; human, 4 h, 21 nM",91.44%
same,percent of viable cells,"[1]; human, 4 h, 210 nM",92.15%
same,percent of viable cells,"[1]; human, 4 h, 2.1 uM",90.41%
same,percent of viable cells,"[1]; human, 4 h, 21 uM",91.48%
same,percent of viable cells,"[1]; human, 4 h, 210 uM",91.43%
same,percent of viable cells,"[1]; human, 4 h, 2.1 mM",92.45%
same,percent of viable cells,"[1]; human, 24 h, 2.1 nM",87.79%
same,percent of viable cells,"[1]; human, 24 h, 21 nM",86.85%
same,percent of viable cells,"[1]; human, 24 h, 210 nM",85.89%
same,percent of viable cells,"[1]; human, 24 h, 2.1 uM",85.72%
same,percent of viable cells,"[1]; human, 24 h, 21 uM",85.17%
same,percent of viable cells,"[1]; human, 24 h, 210 uM",86.48%
same,percent of viable cells,"[1]; human, 24 h, 2.1 mM",88.92%
same,percent of viable cells,"[1]; human, 48 h, 2.1 nM",87.81%
same,percent of viable cells,"[1]; human, 48 h, 21 nM",86.72%
same,percent of viable cells,"[1]; human, 48 h, 210 nM",87.38%
same,percent of viable cells,"[1]; human, 48 h, 2.1 uM",85.85%
same,percent of viable cells,"[1]; human, 48 h, 21 uM",87.52%
same,percent of viable cells,"[1]; human, 48 h, 210 uM",86.02%
same,percent of viable cells,"[1]; human, 48 h, 2.1 mM",89.84%
same,percent of viable cells,"[1]; human, 72 h, 2.1 nM",92.98%
same,percent of viable cells,"[1]; human, 72 h, 21 nM",92.84%
same,percent of viable cells,"[1]; human, 72 h, 210 nM",92.40%
same,percent of viable cells,"[1]; human, 72 h, 2.1 uM",92.25%
same,percent of viable cells,"[1]; human, 72 h, 21 uM",93.83%
same,percent of viable cells,"[1]; human, 72 h, 210 uM",93.03%
same,percent of viable cells,"[1]; human, 72 h, 2.1 mM",96.80%
Cc1c[nH]c(=O)nc1N [5-methyl cytosine],percent of viable cells,"[1]; human, 4 h, 2.1 nM",92.23%
same,percent of viable cells,"[1]; human, 4 h, 21 nM",91.40%
same,percent of viable cells,"[1]; human, 4 h, 210 nM",92.31%
same,percent of viable cells,"[1]; human, 4 h, 2.1 uM",91.31%
same,percent of viable cells,"[1]; human, 4 h, 21 uM",91.16%
same,percent of viable cells,"[1]; human, 4 h, 210 uM",91.54%
same,percent of viable cells,"[1]; human, 4 h, 2.1 mM",92.01%
same,percent of viable cells,"[1]; human, 24 h, 2.1 nM",86.35%
same,percent of viable cells,"[1]; human, 24 h, 21 nM",86.37%
same,percent of viable cells,"[1]; human, 24 h, 210 nM",84.71%
same,percent of viable cells,"[1]; human, 24 h, 2.1 uM",85.14%
same,percent of viable cells,"[1]; human, 24 h, 21 uM",84.72%
same,percent of viable cells,"[1]; human, 24 h, 210 uM",85.76%
same,percent of viable cells,"[1]; human, 24 h, 2.1 mM",87.97%
same,percent of viable cells,"[1]; human, 48 h, 2.1 nM",88.18%
same,percent of viable cells,"[1]; human, 48 h, 21 nM",87.10%
same,percent of viable cells,"[1]; human, 48 h, 210 nM",86.44%
same,percent of viable cells,"[1]; human, 48 h, 2.1 uM",86.18%
same,percent of viable cells,"[1]; human, 48 h, 21 uM",85.74%
same,percent of viable cells,"[1]; human, 48 h, 210 uM",85.94%
same,percent of viable cells,"[1]; human, 48 h, 2.1 mM",87.29%
same,percent of viable cells,"[1]; human, 72 h, 2.1 nM",91.93%
same,percent of viable cells,"[1]; human, 72 h, 21 nM",92.10%
same,percent of viable cells,"[1]; human, 72 h, 210 nM",89.97%
same,percent of viable cells,"[1]; human, 72 h, 2.1 uM",90.92%
same,percent of viable cells,"[1]; human, 72 h, 21 uM",92.26%
same,percent of viable cells,"[1]; human, 72 h, 210 uM",88.10%
same,percent of viable cells,"[1]; human, 72 h, 2.1 mM",96.08%
Adenine,percent of viable cells,"[1]; HEK293, individual NTP 2.1 nM, 4 hr",93.48%
same,percent of viable cells,"[1]; HEK293, individual NTP 2.1 nM, 24 hr",86.44%
same,percent of viable cells,"[1]; HEK293, individual NTP 2.1 nM, 48 hr",92.12%
same,percent of viable cells,"[1]; HEK293, individual NTP 2.1 nM, 72 hr",95.74%
same,percent of viable cells,"[1]; HEK293, individual NTP 21 nM, 4 hr",93.21%
same,percent of viable cells,"[1]; HEK293, individual NTP 21 nM, 24 hr",87.19%
same,percent of viable cells,"[1]; HEK293, individual NTP 21 nM, 48 hr",91.13%
same,percent of viable cells,"[1]; HEK293, individual NTP 21 nM, 72 hr",93.88%
same,percent of viable cells,"[1]; HEK293, individual NTP 210 nM, 4 hr",90.36%
same,percent of viable cells,"[1]; HEK293, individual NTP 210 nM, 24 hr",86.94%
same,percent of viable cells,"[1]; HEK293, individual NTP 210 nM, 48 hr",89.17%
same,percent of viable cells,"[1]; HEK293, individual NTP 210 nM, 72 hr",92.22%
same,percent of viable cells,"[1]; HEK293, individual NTP 2.1 uM, 4 hr",90.23%
same,percent of viable cells,"[1]; HEK293, individual NTP 2.1 uM, 24 hr",86.81%
same,percent of viable cells,"[1]; HEK293, individual NTP 2.1 uM, 48 hr",89.80%
same,percent of viable cells,"[1]; HEK293, individual NTP 2.1 uM, 72 hr",94.58%
same,percent of viable cells,"[1]; HEK293, individual NTP 21 uM, 4 hr",91.20%
same,percent of viable cells,"[1]; HEK293, individual NTP 21 uM, 24 hr",86.86%
same,percent of viable cells,"[1]; HEK293, individual NTP 21 uM, 48 hr",89.94%
same,percent of viable cells,"[1]; HEK293, individual NTP 21 uM, 72 hr",93.83%
same,percent of viable cells,"[1]; HEK293, individual NTP 210 uM, 4 hr",85.97%
same,percent of viable cells,"[1]; HEK293, individual NTP 210 uM, 24 hr",87.31%
same,percent of viable cells,"[1]; HEK293, individual NTP 210 uM, 48 hr",90.55%
same,percent of viable cells,"[1]; HEK293, individual NTP 210 uM, 72 hr",94.81%
same,percent of viable cells,"[1]; HEK293, individual NTP 2.1 mM, 4 hr",90.03%
same,percent of viable cells,"[1]; HEK293, individual NTP 2.1 mM, 24 hr",88.42%
same,percent of viable cells,"[1]; HEK293, individual NTP 2.1 mM, 48 hr",93.71%
same,percent of viable cells,"[1]; HEK293, individual NTP 2.1 mM, 72 hr",97.49%
"α-thiocytidine: G-CSF mRNA (SEQ ID NO: 408) fully modified with α-thiocytidine (nucleic acid, α-thiocytidine modified; Description of Artificial Sequence: Synthetic Transcript Sequence) GGGAAAUAAGAGAGAAAAGAAGAGUAAGAAGAAAUAUAAGAGCCACCAUGGCCGGUCCCGCGACCCAAAGCCCCAUGAAACUUAUGGCCCUGCAGUUGCUGCUUUGGCACUCGGCCCUCUGGACAGUCCAAGAAGCGACUCCUCUCGGACCUGCCUCAUCGUUGCCGCAGUCAUUCCUUUUGAAGUGUCUGGAGCAGGUGCGAAAGAUUCAGGGCGAUGGAGCCGCACUCCAAGAGAAGCUCUGCGCGACAUACAAACUUUGCCAUCCCGAGGAGCUCGUACUGCUCGGGCACAGCUUGGGGAUUCCCUGGGCUCCUCUCUCGUCCUGUCCGUCGCAGGCUUUGCAGUUGGCAGGGUGCCUUUCCCAGCUCCACUCCGGUUUGUUCUUGUAUCAGGGACUGCUGCAAGCCCUUGAGGGAAUCUCGCCAGAAUUGGGCCCGACGCUGGACACGUUGCAGCUCGACGUGGCGGAUUUCGCAACAACCAUCUGGCAGCAGAUGGAGGAACUGGGGAUGGCACCCGCGCUGCAGCCCACGCAGGGGGCAAUGCCGGCCUUUGCGUCCGCGUUUCAGCGCAGGGCGGGUGGAGUCCUCGUAGCGAGCCACCUUCAAUCAUUUUUGGAAGUCUCGUACCGGGUGCUGAGACAUCUUGCGCAGCCGUGAAGCGCUGCCUUCUGCGGGGCUUGCCUUCUGGCCAUGCCCUUCUUCUCUCCCUUGCACCUGUACCUCUUGGUCUUUGAAUAAAGCCUGAGUAGGAAG",G-CSF Protein Expression,[2]; [4],105 pg/mL
same,G-CSF Protein Expression,[2]; [5],264 pg/mL
same,G-CSF Protein Expression,[2]; [6],245 pg/mL
same,IFN-α Expression,interferon-alpha (IFN-α); [4],"1,138 pg/ml"
same,IFN-α Expression,interferon-alpha (IFN-α); [5],565 pg/mL
same,IFN-α Expression,interferon-alpha (IFN-α); [6],695 pg/mL
same,cytokine induction,"interferon-alpha (IFN-α); PBMC, G-CSF mRNA, result in words",increase cytokine stimulation
same,TNF-α Expression,[3]; [4],300 pg/mL
same,TNF-α Expression,[3]; [5],273 pg/mL
same,TNF-α Expression,[3]; [6],277 pg/mL
